A short description of series [1]: Cytotoxicity against human HT-29 cells assessed as reduction in cell viability measured after 8 to 10 hrs by celltiter-glo luminescent cell viability assay. Format: cell-based. The note with it: time 8-10 hrs.
Series [2] relates to HT-29. Kind of series: Anti-necroptotic activity in human HT-29 cells assessed as inhibition of hTNFalpha/Z-VAD-fmk (TSZ)-induced necroptosis by measuring increase in cell viability measured after 8 to 10 hrs by celltiter-glo luminescent cell viability assay. It is filed as functional, cell-based.
Series [3] concerns the target T1, Receptor-interacting serine/threonine-protein kinase 1 (Homo sapiens) (UniProt Q13546).
T1 sequence (whole entry): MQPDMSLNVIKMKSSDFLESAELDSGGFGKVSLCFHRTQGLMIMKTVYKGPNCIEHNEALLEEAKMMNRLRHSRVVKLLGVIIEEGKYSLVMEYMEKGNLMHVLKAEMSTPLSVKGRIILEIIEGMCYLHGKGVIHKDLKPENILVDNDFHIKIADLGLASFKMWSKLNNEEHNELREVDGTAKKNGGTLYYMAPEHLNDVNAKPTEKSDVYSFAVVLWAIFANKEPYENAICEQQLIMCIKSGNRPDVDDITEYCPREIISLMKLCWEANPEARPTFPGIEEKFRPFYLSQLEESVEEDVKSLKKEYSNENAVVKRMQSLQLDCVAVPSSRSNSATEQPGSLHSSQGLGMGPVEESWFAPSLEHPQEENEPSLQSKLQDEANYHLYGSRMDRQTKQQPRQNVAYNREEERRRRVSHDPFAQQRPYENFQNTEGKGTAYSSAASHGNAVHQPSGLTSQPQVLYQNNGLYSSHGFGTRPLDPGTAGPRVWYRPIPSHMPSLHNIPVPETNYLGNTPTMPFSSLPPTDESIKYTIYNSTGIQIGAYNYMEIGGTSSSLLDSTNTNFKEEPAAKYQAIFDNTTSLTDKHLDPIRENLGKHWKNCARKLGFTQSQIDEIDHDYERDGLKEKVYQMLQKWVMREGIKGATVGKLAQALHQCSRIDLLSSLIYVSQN
The experiment in a line: Inhibition of RIPK1 phosphorylation in Z-VAD-fmk (TSZ)-induced human HT-29 cells at 1 uM measured up to 4 hrs by immunoblotting analysis. It is filed as cell-based. The note with it: time hrs <=4.

Series [4] has as its target Receptor-interacting serine/threonine-protein kinase 3 (Homo sapiens) (UniProt Q9Y572). The experiment in a line: Inhibition of RIPK3 in Z-VAD-fmk (TSZ)-induced human HT-29 cells assessed as reduction in RIPK1-RIPK3 necrosome formation at 1 uM measured after 6 hrs by Western blot analysis. It is filed as cell-based.
Series [5] has the same target. Kind of series: Inhibition of RIPK3 phosphorylation in Z-VAD-fmk (TSZ)-induced human HT-29 cells measured at 4 hrs by immunoblotting analysis. Format: cell-based. The conditions noted are these: dose 0.001-1 µM.
The target of series [6] is T2, Mixed lineage kinase domain-like protein (Homo sapiens) (UniProt Q8NB16).
T2 sequence (whole entry): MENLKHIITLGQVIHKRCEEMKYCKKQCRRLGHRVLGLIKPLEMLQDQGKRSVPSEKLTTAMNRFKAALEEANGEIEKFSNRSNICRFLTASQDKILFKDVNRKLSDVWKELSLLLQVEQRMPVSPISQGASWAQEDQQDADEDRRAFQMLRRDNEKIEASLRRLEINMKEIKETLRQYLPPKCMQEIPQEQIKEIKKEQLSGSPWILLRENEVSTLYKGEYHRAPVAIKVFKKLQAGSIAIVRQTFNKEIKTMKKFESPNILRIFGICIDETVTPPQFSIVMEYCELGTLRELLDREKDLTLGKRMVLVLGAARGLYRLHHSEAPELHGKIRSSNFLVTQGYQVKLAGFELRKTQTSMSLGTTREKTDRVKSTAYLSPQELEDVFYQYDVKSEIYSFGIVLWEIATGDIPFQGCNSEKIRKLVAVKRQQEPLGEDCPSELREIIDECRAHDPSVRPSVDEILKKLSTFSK
Kind of series: Inhibition of MLKL phosphorylation in Z-VAD-fmk (TSZ)-induced human HT-29 cells measured at 4 hrs by immunoblotting analysis. Format: cell-based. The note with it: dose 0.001-1 µM.

For series [7], the system named is HT-29. The experiment in a line: Anti-necroptotic activity in human HT-29 cells assessed as inhibition of Z-VAD-fmk (TSZ)-induced necroptosis by measuring increase in cell viability measured after 8 to 10 hrs by celltiter-glo luminescent cell viability assay. Format: functional, cell-based. The note with it: time 8-10 hrs.
In series [8] the target is T2, Mixed lineage kinase domain-like protein (Homo sapiens). The experiment in a line: Inhibition of MLKL phosphorylation in Z-VAD-fmk (TSZ)-induced human HT-29 cells at 1 uM measured up to 4 hrs by immunoblotting analysis. It is filed as cell-based. The conditions noted are these: time hrs <=4.
Series [9] concerns the target T1, Receptor-interacting serine/threonine-protein kinase 1 (Homo sapiens). Kind of series: Inhibition of RIPK1 in Z-VAD-fmk (TSZ)-induced human HT-29 cells assessed as reduction in RIPK1-RIPK3 necrosome formation at 1 uM measured after 6 hrs by Western blot analysis. It is filed as cell-based.
The target is the same in series [10]. The experiment in a line: Inhibition of RIPK1 phosphorylation in Z-VAD-fmk (TSZ)-induced human HT-29 cells measured at 4 hrs by immunoblotting analysis. The note with it: dose 0.001-1 µM. It is filed as cell-based.
In series [11] the target is Receptor-interacting serine/threonine-protein kinase 3 (Homo sapiens) (UniProt Q9Y572). The experiment in a line: Inhibition of RIPK3 phosphorylation in Z-VAD-fmk (TSZ)-induced human HT-29 cells at 1 uM measured up to 4 hrs by immunoblotting analysis. It is filed as cell-based. The note with it: time hrs <=4.
Receptor-interacting serine/threonine-protein kinase 3 (Homo sapiens), sequence (Q9Y572 whole entry, looked up): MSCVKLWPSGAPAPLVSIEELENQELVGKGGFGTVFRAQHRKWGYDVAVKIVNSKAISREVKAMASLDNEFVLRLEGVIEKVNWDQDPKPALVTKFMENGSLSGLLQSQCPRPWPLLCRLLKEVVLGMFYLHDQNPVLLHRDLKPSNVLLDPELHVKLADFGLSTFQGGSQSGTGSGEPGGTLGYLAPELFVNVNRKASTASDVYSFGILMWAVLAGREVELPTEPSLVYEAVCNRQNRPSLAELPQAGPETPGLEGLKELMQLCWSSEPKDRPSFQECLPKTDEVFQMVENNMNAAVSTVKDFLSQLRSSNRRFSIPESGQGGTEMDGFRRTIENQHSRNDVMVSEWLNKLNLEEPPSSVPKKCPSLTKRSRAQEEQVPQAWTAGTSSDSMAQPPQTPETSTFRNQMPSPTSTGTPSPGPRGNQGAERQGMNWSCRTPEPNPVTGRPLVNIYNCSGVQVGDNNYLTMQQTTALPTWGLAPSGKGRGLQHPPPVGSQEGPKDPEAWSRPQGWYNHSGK

The source made the active and inactive calls. The rule behind the calls is not given here.

`Cc1ccc2c(n1)OC[C@H](NC(=O)c1n[nH]c(Cc3ccccc3)n1)C(=O)N2C`: the CC50 in series [1] was over 50 µM. In addition, the EC50 in the series with HT-29 [2] was found to be 0.363 µM.
With `Cc1cnc2c(c1)N(C)C(=O)[C@@H](NC(=O)c1n[nH]c(Cc3ccccc3)n1)CO2`, the CC50 in series [1] is over 50 µM. The half-maximal effective concentration (EC50) in the series with HT-29 [2] was 0.243 µM.
On the same counts, the results for `O=C(N[C@H]1COc2ccccc2NC1=S)c1n[nH]c(Cc2ccccc2)n1` are over 50 µM and 0.736 µM.
For `CN1C(=S)[C@@H](NC(=O)c2n[nH]c(Cc3ccccc3)n2)COc2ncccc21`, the half-maximal cytotoxic concentration (CC50) in series [1] was over 50 µM. Besides, in the series on HT-29 [2], the half-maximal effective concentration (EC50) was over 10 µM.
`[2H]C([2H])([2H])N1C(=S)[C@@H](NC(=O)c2n[nH]c(Cc3ccccc3)n2)COc2ccccc21`: the 50% cytotoxic concentration (CC50) in [1] was over 50 µM. Also, the EC50 in the series on HT-29 [2] turned out to be 0.0074 µM.
On the same counts, the results for `CN1C(=O)[C@H](NC(=O)c2n[nH]c(Cc3ccccc3)n2)COc2ncccc21` are over 50 µM and over 10 µM.
On the same counts, the results for `Cc1cnc2c(c1)N(C)C(=S)[C@H](NC(=O)c1n[nH]c(Cc3ccccc3)n1)CO2` are over 50 µM and 3.4 µM.
Regarding `CCN1C(=S)[C@H](NC(=O)c2n[nH]c(Cc3ccccc3)n2)COc2ccccc21`, the CC50 in series [1] is over 50 µM. In the series with HT-29 [2], the EC50 stood at 6.68 µM.
Take `Cc1ccc2c(n1)OC[C@H](NC(=O)c1n[nH]c(Cc3ccccc3)n1)C(=S)N2C`: in series [1], the CC50 was over 50 µM. Further, in the series on HT-29 [2], the half-maximal effective concentration (EC50) was determined as 0.122 µM.
In the case of `CN1C(=O)[C@@H](NC(=O)c2n[nH]c(Cc3ccccc3)n2)COc2ncccc21`, the 50% cytotoxic concentration (CC50) in [1] was over 50 µM. Also, the EC50 in the series with HT-29 [2] was over 10 µM.
On the same counts, the results for `CN1C(=O)[C@@H](NC(=O)c2nnc(Cc3ccccc3)[nH]2)COc2cccnc21` [ECLITASERTIB] are over 50 µM and 0.0154 µM.
Turning to `CN1C(=O)[C@H](NC(=O)c2n[nH]c(Cc3ccccc3)n2)COc2cccnc21`, the half-maximal cytotoxic concentration (CC50) in series [1] was over 50 µM. In the series on HT-29 [2], the EC50 was determined as 0.81 µM.
In the case of `CN1C(=O)[C@@H](NC(=O)c2nnc(Cc3ccccc3)[nH]2)COc2ccccc21` [GSK2982772], the CC50 in [1] was over 50 µM. Moreover, the concentration giving a half-maximal response (EC50) in the series on HT-29 [2] came to 0.0036 µM.
`CN1C(=S)[C@H](NC(=O)c2n[nH]c(Cc3ccccc3)n2)COc2cccnc21`: in [1], the CC50 is over 50 µM. Also, the EC50 in the series with HT-29 [2] was 0.0186 µM.
`CN1C(=S)[C@H](NC(=O)c2n[nH]c(Cc3ccccc3)n2)COc2ccccc21`: the inhibition entry in [3], in series [4], in [8], in series [9] and in [11] was “Active” throughout. For the same compound, the inhibition entry in [5], in [6] and in series [10] was “Dose-Dependent Effect” in each case. The cytotoxic concentration (CC50) in [1] is over 50 µM. Besides, the Activity entry in the series with HT-29 [7] was “Dose-Dependent Effect”. In the series on HT-29 [2], the EC50 turned out to be 0.0226 µM.
For the compound `Cc1cnc2c(c1)N(C)C(=O)[C@H](NC(=O)c1n[nH]c(Cc3ccccc3)n1)CO2`, the half-maximal cytotoxic concentration (CC50) in [1] was over 50 µM. For the same compound, in the series with HT-29 [2], the concentration giving a half-maximal response (EC50) was over 10 µM.
On the same counts, the results for `Cc1cnc2c(c1)N(C)C(=S)[C@@H](NC(=O)c1n[nH]c(Cc3ccccc3)n1)CO2` are over 50 µM and 0.144 µM.
On the same counts, the results for `CN1C(=O)[C@H](NC(=O)c2nnc(Cc3ccccc3)[nH]2)COc2ccccc21` are over 50 µM and 0.279 µM.
Regarding `CCN1C(=S)[C@@H](NC(=O)c2n[nH]c(Cc3ccccc3)n2)COc2ccccc21`, the CC50 in series [1] is over 50 µM. Moreover, in the series on HT-29 [2], the EC50 stood at 1.51 µM.
As for `CN1C(=S)[C@@H](NC(=O)c2n[nH]c(Cc3ccccc3)n2)COc2cccnc21`, in series [1], the cytotoxic concentration (CC50) was over 50 µM. Besides, in the series with HT-29 [2], the concentration giving a half-maximal response (EC50) was found to be 0.0137 µM.
For `CN1C(=S)[C@@H](NC(=O)c2n[nH]c(Cc3ccccc3)n2)COc2ccccc21`, the inhibition entry in series [3], in [4], in [8], in [9] and in series [11] was “Active” throughout. Moreover, the inhibition entry in [5], in series [6] and in series [10] was “Dose-Dependent Effect” each time. The CC50 in series [1] was over 50 µM. Besides, the Activity result with HT-29 [7] was “Dose-Dependent Effect”. Also, the EC50 in the series on HT-29 [2] is 0.0028 µM.
As for `[2H]C([2H])([2H])N1C(=S)[C@H](NC(=O)c2n[nH]c(Cc3ccccc3)n2)COc2ccccc21`, the CC50 in series [1] is over 50 µM. In addition, the concentration giving a half-maximal response (EC50) in the series on HT-29 [2] was found to be 0.0763 µM.
On to `Cc1ccc2c(n1)OC[C@@H](NC(=O)c1n[nH]c(Cc3ccccc3)n1)C(=O)N2C`, for which the CC50 in series [1] is over 50 µM. For the same compound, the 50% effective concentration (EC50) with HT-29 [2] was 6.5 µM.
On the same counts, the results for `CN1C(=S)[C@H](NC(=O)c2n[nH]c(Cc3ccccc3)n2)COc2ncccc21` are over 50 µM and over 10 µM.
Take `Cc1ccc2c(n1)OC[C@@H](NC(=O)c1n[nH]c(Cc3ccccc3)n1)C(=S)N2C`: in series [1], the 50% cytotoxic concentration (CC50) is over 50 µM. In addition, the EC50 with HT-29 [2] is 2.02 µM.
For `O=C(N[C@@H]1COc2ccccc2NC1=S)c1n[nH]c(Cc2ccccc2)n1`, the CC50 in series [1] is over 50 µM. The EC50 with HT-29 [2] amounted to 8.84 µM.

The values are drawn from ChEMBL document CHEMBL4842316, “Structure-based bioisosterism design of thio-benzoxazepinones as novel necroptosis inhibitors” (Eur J Med Chem, 2021).
